Active and inactive are the calls of the source. Cut-off read from the data, not from the text of the source: actives have a measured IC50 and inactives only a lower limit.
Key:
Type in all cases: functional
[1] = target: T1, Sentrin-specific protease 7 (Homo sapiens, UniProt Q9BQF6);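 note: Luminescence-based dose-response confirmation of ultra-high-throughput screening hits, measuring inhibition of SENP7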
T1 sequence (Q9BQF6 whole entry): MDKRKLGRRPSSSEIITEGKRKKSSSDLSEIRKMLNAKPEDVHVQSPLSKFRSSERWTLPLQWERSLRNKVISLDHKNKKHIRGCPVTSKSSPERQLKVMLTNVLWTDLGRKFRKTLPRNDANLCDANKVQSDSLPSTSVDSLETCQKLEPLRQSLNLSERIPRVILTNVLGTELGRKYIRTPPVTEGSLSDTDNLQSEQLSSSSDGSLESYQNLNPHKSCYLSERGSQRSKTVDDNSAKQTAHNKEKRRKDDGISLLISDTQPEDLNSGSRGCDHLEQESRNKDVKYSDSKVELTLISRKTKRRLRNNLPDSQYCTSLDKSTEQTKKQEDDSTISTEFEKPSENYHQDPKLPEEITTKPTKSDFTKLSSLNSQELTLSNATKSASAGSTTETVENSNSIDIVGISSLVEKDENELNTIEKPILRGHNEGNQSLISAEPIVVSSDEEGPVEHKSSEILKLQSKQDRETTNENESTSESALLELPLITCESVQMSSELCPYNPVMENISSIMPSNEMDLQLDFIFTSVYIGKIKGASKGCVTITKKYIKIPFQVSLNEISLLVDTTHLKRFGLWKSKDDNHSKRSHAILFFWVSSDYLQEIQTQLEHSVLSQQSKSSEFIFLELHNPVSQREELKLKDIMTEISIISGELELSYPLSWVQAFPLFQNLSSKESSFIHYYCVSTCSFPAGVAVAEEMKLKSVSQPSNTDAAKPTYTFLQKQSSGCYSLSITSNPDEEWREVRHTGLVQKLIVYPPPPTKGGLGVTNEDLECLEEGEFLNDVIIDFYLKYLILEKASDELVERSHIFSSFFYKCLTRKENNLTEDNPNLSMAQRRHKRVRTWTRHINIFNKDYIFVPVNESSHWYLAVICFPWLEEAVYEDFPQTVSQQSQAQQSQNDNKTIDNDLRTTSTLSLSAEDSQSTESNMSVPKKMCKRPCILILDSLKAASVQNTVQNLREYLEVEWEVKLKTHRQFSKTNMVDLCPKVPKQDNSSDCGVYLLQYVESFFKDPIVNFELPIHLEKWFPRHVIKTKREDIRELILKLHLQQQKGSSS

[2] = target: T2, Caspase-3 (Homo sapiens, UniProt P42574);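 note: Dose-response selectivity test against caspase-3 for candidate inhibitors of sentrin-specific proteases (SENPs)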
T2 sequence (P42574 whole entry): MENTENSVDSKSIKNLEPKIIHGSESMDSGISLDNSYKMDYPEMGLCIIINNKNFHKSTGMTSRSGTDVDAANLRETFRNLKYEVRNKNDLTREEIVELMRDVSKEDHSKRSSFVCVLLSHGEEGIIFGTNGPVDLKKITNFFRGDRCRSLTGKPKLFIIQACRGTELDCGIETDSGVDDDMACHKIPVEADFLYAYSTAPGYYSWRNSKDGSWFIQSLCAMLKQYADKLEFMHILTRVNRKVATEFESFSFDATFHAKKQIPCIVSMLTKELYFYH

[3] = target: T3, Sentrin-specific protease 6 (Homo sapiens, UniProt Q9GZR1);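 note: Luminescence-based dose-response confirmatory assay of SENP6 inhibition, following up an ultra-high-throughput screen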
T3 sequence (Q9GZR1 whole entry): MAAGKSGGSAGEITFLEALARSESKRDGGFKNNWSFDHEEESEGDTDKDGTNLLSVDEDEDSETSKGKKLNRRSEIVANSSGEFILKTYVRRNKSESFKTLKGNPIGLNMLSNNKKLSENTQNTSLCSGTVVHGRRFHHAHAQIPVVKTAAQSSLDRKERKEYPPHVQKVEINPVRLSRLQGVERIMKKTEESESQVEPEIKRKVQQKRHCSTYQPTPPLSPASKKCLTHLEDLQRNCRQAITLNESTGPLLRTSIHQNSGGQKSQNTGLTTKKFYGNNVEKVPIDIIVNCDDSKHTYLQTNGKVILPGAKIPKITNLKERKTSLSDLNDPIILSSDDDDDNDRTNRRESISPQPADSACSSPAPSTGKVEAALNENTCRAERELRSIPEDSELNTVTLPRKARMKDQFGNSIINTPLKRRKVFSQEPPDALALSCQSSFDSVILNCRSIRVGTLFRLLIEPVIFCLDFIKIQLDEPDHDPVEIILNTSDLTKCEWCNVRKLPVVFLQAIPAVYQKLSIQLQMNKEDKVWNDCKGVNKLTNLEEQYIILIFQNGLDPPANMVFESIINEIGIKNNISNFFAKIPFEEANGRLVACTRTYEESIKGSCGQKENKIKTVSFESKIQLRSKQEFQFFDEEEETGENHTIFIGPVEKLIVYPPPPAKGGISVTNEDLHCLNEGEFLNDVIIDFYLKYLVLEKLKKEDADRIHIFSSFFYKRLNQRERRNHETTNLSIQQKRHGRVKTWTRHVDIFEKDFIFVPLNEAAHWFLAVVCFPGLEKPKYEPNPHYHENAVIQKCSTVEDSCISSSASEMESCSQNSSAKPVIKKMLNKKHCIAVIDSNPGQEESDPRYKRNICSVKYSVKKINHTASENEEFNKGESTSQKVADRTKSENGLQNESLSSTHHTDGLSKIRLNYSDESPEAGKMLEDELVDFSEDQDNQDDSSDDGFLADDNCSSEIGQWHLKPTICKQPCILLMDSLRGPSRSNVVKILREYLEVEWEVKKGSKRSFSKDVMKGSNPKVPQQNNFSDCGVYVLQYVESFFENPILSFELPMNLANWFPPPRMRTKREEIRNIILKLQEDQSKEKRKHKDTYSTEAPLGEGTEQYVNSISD

[4] = target: T4, Sentrin-specific protease 8 (Homo sapiens, UniProt Q96LD8);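 note: luminescence read-out of SENP8 inhibition, dose-response confirmation following an ultra-high-throughput screen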
T4 sequence (Q96LD8 whole entry): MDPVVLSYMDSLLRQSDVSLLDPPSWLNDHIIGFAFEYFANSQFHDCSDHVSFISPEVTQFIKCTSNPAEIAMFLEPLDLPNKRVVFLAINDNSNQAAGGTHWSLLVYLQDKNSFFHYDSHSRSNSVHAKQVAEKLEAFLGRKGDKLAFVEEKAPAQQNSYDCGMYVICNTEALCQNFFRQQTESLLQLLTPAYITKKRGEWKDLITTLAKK

COc1ccc(/C=N/Nc2cc(N(C)C)nc(N(C)C)n2)cc1
IC50 [1]: 54.5 µM (active)
IC50 [2]: > 100 µM (inactive)
IC50 [3]: 5.62 µM (active)
IC50 [4]: 5.78 µM (active)

C/C(=N\c1cccc(C)c1)c1sc2ccccc2c1O
IC50 [1]: 4.75 µM (active)
IC50 [2]: 17.4 µM (active)
IC50 [3]: 12.7 µM (active)
IC50 [4]: 10.7 µM (active)

From ChEMBL document CHEMBL1201862, “PubChem BioAssay data set” (2004)
